MIC and viability data for 9 compounds are collected here from ChEMBL document CHEMBL1140645, “Synthesis and in vitro activity of 2-thiazolylhydrazone derivatives compared with the activity of clotrimazole against clinical isolates of Candida spp” (Bioorg Med Chem Lett, 2007).

Values after ≈ are worked out from the molar mass of the structure shown.

One data set relates to Candida albicans. Nature of the data set: Antifungal activity against Candida albicans after 24 hrs by broth microdilution method. In kind it is functional.
Conditions: not given
In turn, `COc1ccc(-c2csc(N/N=C3\CCCC(C)C3)n2)cc1` (centres undefined) displayed an MIC of 0.5 µg/mL (≈ 1.59 µM).
On the same count and under the same terms, the value for `CC1CCCC/C1=N\Nc1nc(-c2ccc(-c3ccccc3)cc2)cs1` (centres undefined) was 32 µg/mL (≈ 88.5 µM).
Still for that read-out and setting: the value for `O=[N+]([O-])c1ccc(-c2csc(NN=C3CCCC3)n2)cc1` was 8 µg/mL (≈ 26.5 µM).
Still for that read-out and setting: the value for `Cc1ccc(-c2csc(N/N=C3\CCCC(C)C3)n2)cc1` (centres undefined) was 0.5 µg/mL (≈ 1.67 µM); that for `Clc1ccc(-c2csc(NN=C3CCCC3)n2)cc1` was 0.25 µg/mL (≈ 0.857 µM); that for `CC1CCC/C(=N\Nc2nc(-c3ccc(F)cc3)cs2)C1` (centres undefined) was 0.5 µg/mL (≈ 1.65 µM).
Turning to `CC1CCC/C(=N\Nc2nc(-c3ccc(C#N)cc3)cs2)C1` (centres undefined), 0.5 µg/mL (≈ 1.61 µM) was the least that counted as inhibitory (MIC).
Same read-out and setting: the value for `CC1CCCC/C1=N\Nc1nc(-c2ccc(Br)cc2)cs1` (centres undefined) was 4 µg/mL (≈ 11 µM); that for `Brc1ccc(-c2csc(NN=C3CCCC3)n2)cc1` was 2 µg/mL (≈ 5.95 µM).

Test system in the next data set: not listed separately
Nature of the data set: Cytotoxicity against human EAhy926 cells assessed as cell survival fraction at 5 ug/ml after 24 hrs by trypan blue exclusion test. To be noted: ea.hy 926, at 5 µg/mL.
In the case of `COc1ccc(-c2csc(N/N=C3\CCCC(C)C3)n2)cc1` (centres undefined), the viability at 24 h, 5 ug/ml is 72.7%.
Still for that read-out and setting: the value for `Cc1ccc(-c2csc(N/N=C3\CCCC(C)C3)n2)cc1` (centres undefined) was 72.7%; that for `Clc1ccc(-c2csc(NN=C3CCCC3)n2)cc1` was 81%.
On the same count and under the same terms, the value for `CC1CCC/C(=N\Nc2nc(-c3ccc(F)cc3)cs2)C1` (centres undefined) was 60%; that for `CC1CCC/C(=N\Nc2nc(-c3ccc(C#N)cc3)cs2)C1` (centres undefined) was 50%.

Another data set relates to Pichia kudriavzevii. The data set is described as follows: Antifungal activity against Candida krusei after 24 hrs by broth microdilution method. It is filed as functional.
Conditions: not given
The compound `COc1ccc(-c2csc(N/N=C3\CCCC(C)C3)n2)cc1` (centres undefined) yielded an MIC of 2 µg/mL (≈ 6.34 µM).
The same measure, in the same setting: the value for `CC1CCCC/C1=N\Nc1nc(-c2ccc(-c3ccccc3)cc2)cs1` (centres undefined) was 16 µg/mL (≈ 44.3 µM); that for `O=[N+]([O-])c1ccc(-c2csc(NN=C3CCCC3)n2)cc1` was 32 µg/mL (≈ 106 µM); that for `Cc1ccc(-c2csc(N/N=C3\CCCC(C)C3)n2)cc1` (centres undefined) was 0.5 µg/mL (≈ 1.67 µM).
The same measure, in the same setting: for `Clc1ccc(-c2csc(NN=C3CCCC3)n2)cc1` the value was 64 µg/mL (≈ 219 µM); for `CC1CCC/C(=N\Nc2nc(-c3ccc(F)cc3)cs2)C1` (centres undefined), 4 µg/mL (≈ 13.2 µM).
Same read-out and setting: the value for `CC1CCC/C(=N\Nc2nc(-c3ccc(C#N)cc3)cs2)C1` (centres undefined) was 4 µg/mL (≈ 12.9 µM).
The compound `CC1CCCC/C1=N\Nc1nc(-c2ccc(Br)cc2)cs1` (centres undefined) yielded an MIC of 64 µg/mL (≈ 176 µM).
Turning to `Brc1ccc(-c2csc(NN=C3CCCC3)n2)cc1`, the MIC was > 128 µg/mL.

For another data set, the system named is Nakaseomyces glabratus. The data set is described as follows: Antifungal activity against Candida glabrata after 24 hrs by broth microdilution method.
Conditions: not given
In kind it is functional.
In the case of `COc1ccc(-c2csc(N/N=C3\CCCC(C)C3)n2)cc1` (centres undefined), the MIC was > 128 µg/mL.
The same measure, in the same setting: the value for `CC1CCCC/C1=N\Nc1nc(-c2ccc(-c3ccccc3)cc2)cs1` (centres undefined) was 64 µg/mL (≈ 177 µM).
On the same count and under the same terms, for `O=[N+]([O-])c1ccc(-c2csc(NN=C3CCCC3)n2)cc1` the value was 0.5 µg/mL (≈ 1.65 µM); for `Cc1ccc(-c2csc(N/N=C3\CCCC(C)C3)n2)cc1` (centres undefined), 32 µg/mL (≈ 107 µM); for `Clc1ccc(-c2csc(NN=C3CCCC3)n2)cc1`, 0.5 µg/mL (≈ 1.71 µM).
On the same count and under the same terms, the value for `CC1CCC/C(=N\Nc2nc(-c3ccc(F)cc3)cs2)C1` (centres undefined) was > 128 µg/mL.
Take `CC1CCC/C(=N\Nc2nc(-c3ccc(C#N)cc3)cs2)C1` (centres undefined): the MIC was > 128 µg/mL.
Still for that read-out and setting: the value for `CC1CCCC/C1=N\Nc1nc(-c2ccc(Br)cc2)cs1` (centres undefined) was 2 µg/mL (≈ 5.49 µM); that for `Brc1ccc(-c2csc(NN=C3CCCC3)n2)cc1` was 2 µg/mL (≈ 5.95 µM).

Test system in another data set: not listed separately
The data set is described as follows: Cytotoxicity against human EAhy926 cells assessed as cell survival fraction at 50 ug/ml after 24 hrs by trypan blue exclusion test. Conditions: ea.hy 926, at 50 µg/mL.
As to `COc1ccc(-c2csc(N/N=C3\CCCC(C)C3)n2)cc1` (centres undefined), the viability at 24 h, 50 ug/ml is 54.5%.
Take `Cc1ccc(-c2csc(N/N=C3\CCCC(C)C3)n2)cc1` (centres undefined): the viability at 24 h, 50 ug/ml turned out to be 38.5%.
Same read-out and setting: for `Clc1ccc(-c2csc(NN=C3CCCC3)n2)cc1` the value was 64.9%.
Turning to `CC1CCC/C(=N\Nc2nc(-c3ccc(F)cc3)cs2)C1` (centres undefined), the viability at 24 h, 50 ug/ml stood at 52.9%.
The same measure, in the same setting: the value for `CC1CCC/C(=N\Nc2nc(-c3ccc(C#N)cc3)cs2)C1` (centres undefined) was 25%.

A further data set deals with Candida tropicalis. Nature of the data set: Antifungal activity against Candida tropicalis after 24 hrs by broth microdilution method.
Conditions: not given
In kind it is functional.
Compound `COc1ccc(-c2csc(N/N=C3\CCCC(C)C3)n2)cc1` (centres undefined) showed an MIC of 2 µg/mL (≈ 6.34 µM).
Same read-out and setting: for `CC1CCCC/C1=N\Nc1nc(-c2ccc(-c3ccccc3)cc2)cs1` (centres undefined) the value was 64 µg/mL (≈ 177 µM); for `O=[N+]([O-])c1ccc(-c2csc(NN=C3CCCC3)n2)cc1`, 64 µg/mL (≈ 212 µM); for `Cc1ccc(-c2csc(N/N=C3\CCCC(C)C3)n2)cc1` (centres undefined), 0.5 µg/mL (≈ 1.67 µM).
Same read-out and setting: for `Clc1ccc(-c2csc(NN=C3CCCC3)n2)cc1` the value was 32 µg/mL (≈ 110 µM); for `CC1CCC/C(=N\Nc2nc(-c3ccc(F)cc3)cs2)C1` (centres undefined), 4 µg/mL (≈ 13.2 µM).
Same read-out and setting: for `CC1CCC/C(=N\Nc2nc(-c3ccc(C#N)cc3)cs2)C1` (centres undefined) the value was 2 µg/mL (≈ 6.44 µM); for `CC1CCCC/C1=N\Nc1nc(-c2ccc(Br)cc2)cs1` (centres undefined), 32 µg/mL (≈ 87.8 µM).
On to `Brc1ccc(-c2csc(NN=C3CCCC3)n2)cc1`, for which the MIC was ≥ 128 µg/mL.

Another data set relates to [Candida] sake. The data set is described as follows: Antifungal activity against Candida sake after 24 hrs by broth microdilution method. In kind it is functional. Conditions: Fermentozyma sake. In general terms: Broth dilution looks for growth in wells or tubes with falling amounts of substance.
With `COc1ccc(-c2csc(N/N=C3\CCCC(C)C3)n2)cc1` (centres undefined), the MIC worked out at 8 µg/mL (≈ 25.4 µM).
The same measure, in the same setting: the value for `CC1CCCC/C1=N\Nc1nc(-c2ccc(-c3ccccc3)cc2)cs1` (centres undefined) was 16 µg/mL (≈ 44.3 µM); that for `O=[N+]([O-])c1ccc(-c2csc(NN=C3CCCC3)n2)cc1` was 16 µg/mL (≈ 52.9 µM).
The same measure, in the same setting: the value for `Cc1ccc(-c2csc(N/N=C3\CCCC(C)C3)n2)cc1` (centres undefined) was 2 µg/mL (≈ 6.68 µM).
Same read-out and setting: for `Clc1ccc(-c2csc(NN=C3CCCC3)n2)cc1` the value was 16 µg/mL (≈ 54.8 µM).
Turning to `CC1CCC/C(=N\Nc2nc(-c3ccc(F)cc3)cs2)C1` (centres undefined), the MIC is 8 µg/mL (≈ 26.4 µM).
The same measure, in the same setting: the value for `CC1CCC/C(=N\Nc2nc(-c3ccc(C#N)cc3)cs2)C1` (centres undefined) was 4 µg/mL (≈ 12.9 µM); that for `CC1CCCC/C1=N\Nc1nc(-c2ccc(Br)cc2)cs1` (centres undefined) was 16 µg/mL (≈ 43.9 µM); that for `Brc1ccc(-c2csc(NN=C3CCCC3)n2)cc1` was 32 µg/mL (≈ 95.2 µM).

The next data set concerns Candida parapsilosis. Nature of the data set: Antifungal activity against Candida parapsilosis after 24 hrs by broth microdilution method. It is filed as functional. To be noted: Lodderomyces parapsilosis.
The compound `COc1ccc(-c2csc(N/N=C3\CCCC(C)C3)n2)cc1` (centres undefined) came in with an MIC of 1 µg/mL (≈ 3.17 µM).
Same read-out and setting: for `CC1CCCC/C1=N\Nc1nc(-c2ccc(-c3ccccc3)cc2)cs1` (centres undefined) the value was 16 µg/mL (≈ 44.3 µM); for `O=[N+]([O-])c1ccc(-c2csc(NN=C3CCCC3)n2)cc1`, > 128 µg/mL.
On the same count and under the same terms, the value for `Cc1ccc(-c2csc(N/N=C3\CCCC(C)C3)n2)cc1` (centres undefined) was 0.5 µg/mL (≈ 1.67 µM); that for `Clc1ccc(-c2csc(NN=C3CCCC3)n2)cc1` was 8 µg/mL (≈ 27.4 µM).
With `CC1CCC/C(=N\Nc2nc(-c3ccc(F)cc3)cs2)C1` (centres undefined), the MIC came to 1 µg/mL (≈ 3.3 µM).
The same measure, in the same setting: the value for `CC1CCC/C(=N\Nc2nc(-c3ccc(C#N)cc3)cs2)C1` (centres undefined) was 0.5 µg/mL (≈ 1.61 µM); that for `CC1CCCC/C1=N\Nc1nc(-c2ccc(Br)cc2)cs1` (centres undefined) was 8 µg/mL (≈ 22 µM); that for `Brc1ccc(-c2csc(NN=C3CCCC3)n2)cc1` was 128 µg/mL (≈ 381 µM).

Test system in another data set: not listed separately
Nature of the data set: Cytotoxicity against human EAhy926 cells assessed as cell survival fraction at 0.05 ug/ml after 24 hrs by trypan blue exclusion test. Conditions: ea.hy 926, at 0.05 µg/mL.
Consider `COc1ccc(-c2csc(N/N=C3\CCCC(C)C3)n2)cc1` (centres undefined), for which the viability at 24 h, 0.05 ug/ml was 83.3%.
On the same count and under the same terms, the value for `Cc1ccc(-c2csc(N/N=C3\CCCC(C)C3)n2)cc1` (centres undefined) was 84%.
The same measure, in the same setting: for `Clc1ccc(-c2csc(NN=C3CCCC3)n2)cc1` the value was 86%; for `CC1CCC/C(=N\Nc2nc(-c3ccc(F)cc3)cs2)C1` (centres undefined), 80%; for `CC1CCC/C(=N\Nc2nc(-c3ccc(C#N)cc3)cs2)C1` (centres undefined), 68.8%.

Test system in another data set: not listed separately
Nature of the data set: Cytotoxicity against human EAhy926 cells assessed as cell survival fraction at 0.5 ug/ml after 24 hrs by trypan blue exclusion test. Conditions: ea.hy 926, at 0.5 µg/mL.
`COc1ccc(-c2csc(N/N=C3\CCCC(C)C3)n2)cc1` (centres undefined): the viability at 24 h, 0.5 ug/ml turned out to be 80%.
Take `Cc1ccc(-c2csc(N/N=C3\CCCC(C)C3)n2)cc1` (centres undefined): the viability at 24 h, 0.5 ug/ml was found to be 83.3%.
As to `Clc1ccc(-c2csc(NN=C3CCCC3)n2)cc1`, the viability at 24 h, 0.5 ug/ml worked out at 89.2%.
On to `CC1CCC/C(=N\Nc2nc(-c3ccc(F)cc3)cs2)C1` (centres undefined), for which the viability at 24 h, 0.5 ug/ml is 76.9%.
Consider `CC1CCC/C(=N\Nc2nc(-c3ccc(C#N)cc3)cs2)C1` (centres undefined), for which the viability at 24 h, 0.5 ug/ml stood at 68.7%.

The MIC is the smallest concentration in the dilution series that meets the test's criterion for growth inhibition. A lower MIC goes with greater potency. A word on the viability: it is a per cent measure of how many cells are alive, often set against a control.
